We go through 15 compounds from patent publication US20130035326A1 (AMBIT BIOSCIENCES CORPORATION, priority 2009, published 2013).

In general, Kd refers to a measure of binding affinity in units of concentration. A low value points to tighter binding. By IC50 is commonly meant the point on the concentration scale where inhibition reaches its midpoint.

The target in assay [1] is T1, CSF-1R kinase (Homo sapiens, UniProt P07333).
T1 construct: made in house; host or cells: T7 phage display or HEK-293 cells
Nature of the assay: Competition binding assay, CSF-1R Kd. An outline of the steps: (§1)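 Kd values derived from an eleven-point, threefold compound dilution series in a bead-based competition format: kinase (phage-fused or HEK-293-derived with DNA tag), ligand-coated streptavidin beads and compound equilibrated 1 h at room temperature. After washing, retained kinase was eluted with non-biotinylated ligand (0.5 μM) and measured by quantitative PCR.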

In assay [2] the target is kinase panel containing either 359 or 386 distinct kinases. Kind of assay: Selectivity score S10 from competition binding against a panel of kinases. The settings on record: compounds at 10 μM; panel of 386 distinct kinases. The method, boiled down: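 Compounds were tested at 10 μM in competition binding against T7 phage-fused or HEK-293-expressed DNA-tagged kinases with immobilized affinity ligands, 1 h at room temperature. Bound kinase was quantified by qPCR as percent of DMSO control; S10 is the fraction of distinct kinases (mutants excluded) with POC below 10.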

Assay [3] relates to MV4-11 cells. Kind of assay: MV4-11 cell proliferation assay (Alamar Blue). The settings on record: Homo sapiens, MV4-11, 72 h, 3 days incubation. The class given is cell-based. The method, boiled down:
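Flt3-ITD MV4-11 cells were serum-starved overnight in Iscove's with 0.5% FBS, then given compound at 9 half-log concentrations (0.5% DMSO) for 3 days at 37° C. Alamar Blue reduction was read after 3 h by fluorescence (560/590 nm). IC50 is the mean of duplicates versus negative control.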

Assay [4] addresses T2, KIT kinase (Homo sapiens, UniProt P10721).
T2 construct: made in house; host or cells: T7 phage display or HEK-293 cells
Nature of the assay: Competition binding assay, KIT Kd. The method, boiled down:
as §1

For assay [5], the target named is T3, FLT3 kinase (Homo sapiens, UniProt P36888).
T3 construct: made in house; host or cells: T7 phage display or HEK-293 cells
T3 sequence (P36888 27-993): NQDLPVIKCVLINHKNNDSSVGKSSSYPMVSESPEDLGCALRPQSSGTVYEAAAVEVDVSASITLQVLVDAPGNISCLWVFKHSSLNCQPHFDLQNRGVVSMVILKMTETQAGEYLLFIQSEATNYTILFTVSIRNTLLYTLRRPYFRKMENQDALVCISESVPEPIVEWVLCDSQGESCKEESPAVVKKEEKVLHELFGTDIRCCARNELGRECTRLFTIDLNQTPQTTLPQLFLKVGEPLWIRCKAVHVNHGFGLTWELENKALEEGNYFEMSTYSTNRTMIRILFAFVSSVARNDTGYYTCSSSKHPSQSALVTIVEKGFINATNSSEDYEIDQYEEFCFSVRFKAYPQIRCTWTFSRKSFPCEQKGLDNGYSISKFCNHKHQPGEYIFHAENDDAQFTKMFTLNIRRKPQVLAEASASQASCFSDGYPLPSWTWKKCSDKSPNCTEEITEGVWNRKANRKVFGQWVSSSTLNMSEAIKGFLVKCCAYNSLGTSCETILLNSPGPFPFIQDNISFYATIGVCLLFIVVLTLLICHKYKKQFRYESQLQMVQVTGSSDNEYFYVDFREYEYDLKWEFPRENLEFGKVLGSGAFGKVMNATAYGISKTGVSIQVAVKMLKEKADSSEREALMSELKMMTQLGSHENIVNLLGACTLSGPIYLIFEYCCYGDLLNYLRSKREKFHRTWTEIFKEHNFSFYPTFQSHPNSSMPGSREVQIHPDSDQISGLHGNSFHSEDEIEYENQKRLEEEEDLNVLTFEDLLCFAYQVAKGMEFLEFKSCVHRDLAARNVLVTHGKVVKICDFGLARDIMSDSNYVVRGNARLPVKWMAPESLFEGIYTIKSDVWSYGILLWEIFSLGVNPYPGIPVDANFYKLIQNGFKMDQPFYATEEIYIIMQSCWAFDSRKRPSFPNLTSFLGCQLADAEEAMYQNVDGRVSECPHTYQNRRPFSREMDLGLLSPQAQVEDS
Kind of assay: Competition binding assay, FLT3 Kd. An outline of the steps:
as §1

Bounds are passed on as bounds.

T2 sequence (P10721 26-976): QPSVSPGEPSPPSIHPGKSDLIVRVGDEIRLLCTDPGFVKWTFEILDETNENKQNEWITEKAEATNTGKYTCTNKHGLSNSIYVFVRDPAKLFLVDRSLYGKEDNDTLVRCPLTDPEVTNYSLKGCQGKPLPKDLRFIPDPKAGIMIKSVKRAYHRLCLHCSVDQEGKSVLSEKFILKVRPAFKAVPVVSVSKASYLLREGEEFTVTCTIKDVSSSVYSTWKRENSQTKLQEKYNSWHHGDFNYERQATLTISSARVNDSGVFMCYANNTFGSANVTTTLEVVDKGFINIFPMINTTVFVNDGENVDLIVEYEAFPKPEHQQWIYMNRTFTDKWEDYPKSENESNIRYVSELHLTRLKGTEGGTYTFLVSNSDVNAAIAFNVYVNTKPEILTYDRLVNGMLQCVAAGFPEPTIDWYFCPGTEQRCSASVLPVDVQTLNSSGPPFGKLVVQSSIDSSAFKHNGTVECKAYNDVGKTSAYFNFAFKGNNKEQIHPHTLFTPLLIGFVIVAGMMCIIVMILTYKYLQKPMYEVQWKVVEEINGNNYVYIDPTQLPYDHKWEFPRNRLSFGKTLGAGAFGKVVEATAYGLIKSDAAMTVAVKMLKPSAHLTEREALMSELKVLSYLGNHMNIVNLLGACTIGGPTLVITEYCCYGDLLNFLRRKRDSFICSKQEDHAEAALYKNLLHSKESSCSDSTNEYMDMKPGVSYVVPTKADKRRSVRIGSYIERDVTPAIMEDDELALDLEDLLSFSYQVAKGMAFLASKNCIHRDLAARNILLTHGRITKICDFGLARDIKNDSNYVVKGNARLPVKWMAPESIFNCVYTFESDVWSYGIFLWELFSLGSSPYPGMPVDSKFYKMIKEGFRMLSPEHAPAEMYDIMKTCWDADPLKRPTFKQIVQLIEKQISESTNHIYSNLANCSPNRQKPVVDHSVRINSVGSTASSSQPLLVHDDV
T1 sequence (P07333 20-972): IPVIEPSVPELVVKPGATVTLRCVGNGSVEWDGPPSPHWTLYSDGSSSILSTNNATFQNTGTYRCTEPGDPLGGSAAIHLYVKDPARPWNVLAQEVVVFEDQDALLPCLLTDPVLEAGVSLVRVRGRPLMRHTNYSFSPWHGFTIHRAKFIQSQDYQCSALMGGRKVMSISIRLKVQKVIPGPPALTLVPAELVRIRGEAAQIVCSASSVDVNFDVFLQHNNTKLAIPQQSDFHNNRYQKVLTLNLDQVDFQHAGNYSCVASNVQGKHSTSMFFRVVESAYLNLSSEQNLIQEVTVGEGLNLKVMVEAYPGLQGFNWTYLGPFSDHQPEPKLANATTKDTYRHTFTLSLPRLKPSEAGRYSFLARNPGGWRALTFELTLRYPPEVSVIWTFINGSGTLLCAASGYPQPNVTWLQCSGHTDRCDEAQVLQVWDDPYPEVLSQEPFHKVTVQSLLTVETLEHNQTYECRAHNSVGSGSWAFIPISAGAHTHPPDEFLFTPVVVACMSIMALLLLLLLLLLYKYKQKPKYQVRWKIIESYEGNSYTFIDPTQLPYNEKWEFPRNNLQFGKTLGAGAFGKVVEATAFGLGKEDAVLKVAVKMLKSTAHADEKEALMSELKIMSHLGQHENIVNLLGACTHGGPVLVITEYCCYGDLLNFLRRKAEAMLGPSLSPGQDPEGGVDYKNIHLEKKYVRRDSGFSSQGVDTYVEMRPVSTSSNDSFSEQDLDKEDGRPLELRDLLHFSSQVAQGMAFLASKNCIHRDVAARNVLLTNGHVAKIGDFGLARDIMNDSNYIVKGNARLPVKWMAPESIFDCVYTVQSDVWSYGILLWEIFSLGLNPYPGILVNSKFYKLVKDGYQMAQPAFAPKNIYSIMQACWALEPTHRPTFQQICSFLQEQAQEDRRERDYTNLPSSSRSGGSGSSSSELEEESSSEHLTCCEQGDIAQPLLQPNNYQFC

For `CS(=O)(=O)O.Nc1ncc(-c2ccc(CC(=O)Nc3cc(C4(C(F)(F)F)CC4)on3)cc2)cc1Cl` [Example 133, 3-chloro-5-(4-(2-oxo-2-(5-(1-(trifluoromethyl)cyclopropyl)isoxazol-3-ylamino)ethyl)phenyl)pyridin-2-aminium methanesulfonate], the Kd in assay [1] is not above 10 nM; in assay [4], 1 to 10 nM; in assay [5], not above 1 nM. The “Kinase specificty: S(10)-386 panel” value in assay [2] was “B (0.1<B≦0.2 nM)”. In assay [3], this compound had an IC50 not above 1 nM.

In the case of `CC1(c2cc(NC(=O)Cc3ccc(-c4ccc(N)nc4F)cc3)no2)CC1` [Example 134, 2-(4-(6-amino-2-fluoropyridin-3-yl)phenyl)-N-(5-(1-methylcyclopropyl)isoxazol-3-yl)acetamide], the results for the Kd in assay [1], in assay [4] and in assay [5] were not above 10 nM, not above 1 nM and not above 1 nM, respectively. Also, the “Kinase specificty: S(10)-386 panel” value in assay [2] was “A (A≦0.1)”. In assay [3], this compound registered an IC50 of 1 to 10 nM.

Turning to `CC1(c2cc(NC(=O)Cc3ccc(-c4cnc(N)c(C(F)(F)F)c4)cc3)no2)COC1.CS(=O)(=O)O` [Example 135, 5-(4-(2-((5-(3-methyloxetan-3-yl)isoxazol-3-yl)amino)-2-oxoethyl)phenyl)-3-(trifluoromethyl)pyridin-2-aminium methanesulfonate], the Kd was not above 10 nM in assay [1], 1 to 10 nM in assay [4] and not above 1 nM in assay [5]. Besides, the “Kinase specificty: S(10)-386 panel” value in assay [2] is on record as “B (0.1<B≦0.2 nM)”. The IC50 in assay [3] was in the range of 1 to 10 nM.

For the compound `COc1cc(-c2ccc(CC(=O)Nc3cc(C(C)(C)C)on3)cc2)cnc1N.CS(=O)(=O)O` [Example 136, 5-(4-(2-(5-tert-butylisoxazol-3-ylamino)-2-oxoethyl)phenyl)-3-methoxypyridin-2-aminium methanesulfonate], the Kd in assay [1] is not above 10 nM; in assay [4], 1 to 10 nM; in assay [5] it was not above 1 nM. Also, the “Kinase specificty: S(10)-386 panel” value in assay [2] is “B (0.1<B≦0.2 nM)”. Further, the IC50 in assay [3] was not above 1 nM.

For `CS(=O)(=O)O.Nc1ccc(-c2ccc(CC(=O)Nc3cc(C4(C(F)(F)F)CC4)on3)cc2)c(F)n1` [Example 137, 6-fluoro-5-(4-(2-oxo-2-(5-(1-(trifluoromethyl)cyclopropyl)isoxazol-3-ylamino)ethyl)phenyl)pyridin-2-aminium methanesulfonate], the figures for the Kd in assay [1], in assay [4] and in assay [5] were 10 to 100 nM, 1 to 10 nM and not above 1 nM, respectively. Further, the “Kinase specificty: S(10)-386 panel” value in assay [2] is recorded as “A (A≦0.1)”. In addition, the IC50 in assay [3] was not above 1 nM.

In the case of `CC1(c2cc(NC(=O)Cc3ccc(-c4cnc(N)c(F)c4)cc3)no2)CC1.CS(=O)(=O)O` [Example 138, 3-fluoro-5-(4-(2-(5-(1-methylcyclopropyl)isoxazol-3-ylamino)-2-oxoethyl)phenyl)pyridin-2-aminium methanesulfonate], the Kd in assay [1] was not above 10 nM; in assay [4], not above 1 nM; in assay [5], not above 1 nM. Further, in assay [2], the “Kinase specificty: S(10)-386 panel” value is recorded as “B (0.1<B≦0.2 nM)”. Further, the IC50 in assay [3] is not above 1 nM.

Take `CS(=O)(=O)O.Nc1ccc(-c2ccc(CC(=O)Nc3cc(C4(C(F)(F)F)CC4)on3)c(F)c2)cn1` [Example 139, 5-(3-fluoro-4-(2-oxo-2-(5-(1-(trifluoromethyl)cyclopropyl)isoxazol-3-ylamino)ethyl)phenyl)pyridin-2-aminium methanesulfonate]: the Kd in assay [1] was not above 10 nM; in assay [4], 1 to 10 nM; in assay [5], not above 1 nM. Moreover, in assay [2], the “Kinase specificty: S(10)-386 panel” value is recorded as “B (0.1<B≦0.2 nM)”. Further, the 50% inhibitory concentration (IC50) in assay [3] is not above 1 nM.

As for `CC1(c2cc(NC(=O)Cc3ccc(-c4ccc(N)nc4F)cc3)no2)COC1` [Example 140, 2-(4-(6-amino-2-fluoropyridin-3-yl)phenyl)-N-(5-(3-methyloxetan-3-yl)isoxazol-3-yl)acetamide], the results for the equilibrium dissociation constant (Kd) in assay [1], in assay [4] and in assay [5] were not above 10 nM, 1 to 10 nM and not above 1 nM, respectively. The “Kinase specificty: S(10)-386 panel” value in assay [2] is reported as “A (A≦0.1)”. Moreover, the half-inhibitory concentration (IC50) in assay [3] was 10 to 100 nM.

As for `CC(C)(C)c1cc(NC(=O)Cc2ccc(-c3cnc4[nH]c(=O)oc4c3)cc2)no1` [Example 141, N-(5-tert-butylisoxazol-3-yl)-2-(4-(2-oxo-2,3-dihydrooxazolo[4,5-b]pyridin-6-yl)phenyl)acetamide], the Kd in assay [1] was 10 to 100 nM; in assay [4] it was 1 to 10 nM; in assay [5], 1 to 10 nM. Also, in assay [2], the “Kinase specificty: S(10)-386 panel” value is “B (0.1<B≦0.2 nM)”. Further, the IC50 in assay [3] was in the range of 1 to 10 nM.

`CC(C)(c1cc(NC(=O)Cc2ccc(-c3ccc(N)nc3F)cc2)no1)C(F)(F)F.CS(=O)(=O)O` [Example 142, 6-fluoro-5-(4-(2-oxo-2-(5-(1,1,1-trifluoro-2-methylpropan-2-yl)isoxazol-3-ylamino)ethyl)phenyl)pyridin-2-aminium methanesulfonate]: the equilibrium dissociation constant (Kd) is not above 10 nM in assay [1], 1 to 10 nM in assay [4] and not above 1 nM in assay [5]. Further, the “Kinase specificty: S(10)-386 panel” value in assay [2] was “A (A≦0.1)”. For the same compound, the IC50 in assay [3] is not above 1 nM.

As to `CS(=O)(=O)O.Nc1ccc(-c2ccc(CC(=O)Nc3cc(C4CCC4)no3)cc2)cn1` [Example 143, 5-(4-(2-((3-cyclobutylisoxazol-5-yl)amino)-2-oxoethyl)phenyl)pyridin-2-aminium methanesulfonate], the Kd is not above 10 nM in assay [1], not above 1 nM in assay [4] and not above 1 nM in assay [5]. Besides, the “Kinase specificty: S(10)-386 panel” value in assay [2] was “A (A≦0.1)”. In addition, the IC50 in assay [3] fell in the range of 1 to 10 nM.

`CC1(c2cc(NC(=O)Cc3ccc(-c4ccc(N)nc4)cc3)no2)CCC1.CS(=O)(=O)O` [Example 144, 5-(4-(2-((5-(1-methylcyclobutyl)isoxazol-3-yl)amino)-2-oxoethyl)phenyl)pyridin-2-aminium methanesulfonate]: the Kd is not above 10 nM in assay [1], not above 1 nM in assay [4] and not above 1 nM in assay [5]. For the same compound, the “Kinase specificty: S(10)-386 panel” value in assay [2] was “B (0.1<B≦0.2 nM)”. In assay [3], the IC50 is not above 1 nM.

As for `CS(=O)(=O)O.Cc1cc(-c2ccc(CC(=O)Nc3cc(C4(C)COC4)on3)cc2)cnc1N` [Example 145, 3-methyl-5-(4-(2-((5-(3-methyloxetan-3-yl)isoxazol-3-yl)amino)-2-oxoethyl)phenyl)pyridin-2-aminium methanesulfonate], the figures for the Kd in assay [1], in assay [4] and in assay [5] were not above 10 nM, 1 to 10 nM and not above 1 nM, respectively. Further, the “Kinase specificty: S(10)-386 panel” value in assay [2] is given as “A (A≦0.1)”. This compound returned an IC50 in assay [3] of 10 to 100 nM.

Regarding `CC1(c2cc(NC(=O)Cc3ccc(-c4cnc(N)c(F)c4)cc3)no2)COC1.CS(=O)(=O)O` [Example 146, 3-fluoro-5-(4-(2-((5-(3-methyloxetan-3-yl)isoxazol-3-yl)amino)-2-oxoethyl)phenyl)pyridin-2-aminium methanesulfonate], the results for the Kd in assay [1], in assay [4] and in assay [5] were not above 10 nM, not above 1 nM and not above 1 nM, respectively. In addition, in assay [2], the “Kinase specificty: S(10)-386 panel” value is on record as “A (A≦0.1)”. The compound further yielded an IC50 in assay [3] of 1 to 10 nM.

As for `CC(C)(C)c1cc(NC(=O)Cc2ccc(-c3cnc4[nH]c(=O)[nH]c4c3)cc2)no1` [Example 147, N-(5-tert-butylisoxazol-3-yl)-2-(4-(2-oxo-2,3-dihydro-1H-imidazo[4,5-b]pyridin-6-yl)phenyl)acetamide], the figures for the Kd in assay [1], in assay [4] and in assay [5] were not above 10 nM, 1 to 10 nM and 1 to 10 nM, respectively. The “Kinase specificty: S(10)-386 panel” value in assay [2] is listed as “B (0.1<B≦0.2 nM)”. The compound further displayed an IC50 in assay [3] not above 1 nM.
